In US9447091B2, “Protein kinase inhibitors” (Orion Corporation, priority 2011, dated 2016):

Assays:
FGFR1 kinase = FGFR1 kinase (Homo sapiens (Human), UniProt P11362); assay: FGFR1 TR-FRET kinase assay; format: biochemical; conditions: for inhibition at 1 µM: 1000 nM compound; for IC50: 13 μM ATP, read-out: IC50 of FGFR1 inhibition
Method: Compounds were screened in the TR-FRET assay with FGFR1 kinase. 5 ng of FGFR1 [Upstate, USA] kinase was used for assay. The compound was incubated with the kinase for 30 minutes at RT. After the incubation, substrate mix [40 nM Ultra light poly GT (Perkin Elmer, USA) and 13 μM ATP (Sigma)] was added. The above reaction was stopped by the addition of 40 mM EDTA after the […] kinase reaction. The Eu-labelled antiphospho-tyrosine antibody [Perkin Elmer, USA] was added at 0.5 nM and the fluorescence emission at 615 nm/665 nm [excitation at 340 nm] was measured. The compounds were initially screened at 100 nM and 1 μM concentrations. The compounds with >50% inhibition at 100 nM of FGFR1 were taken for the full dose response studies. The final DMSO concentration in the assay was 1%. For IC50 determination, ⅓^rd serial dilution was made from the 20 mM DMSO stock solution. 2 μl of these were transferred to the test wells containing 20 μl of the reaction mixture [total reaction volume 20 μl]. The fluorescence was measured in Perkin Elmer Wallac 1420 Multilabel Counter Victor 3. The IC50 was determined by fitting the dose response data to sigmoidal curve fitting equation using GraphPad Prism software V5.

c-Met kinase = c-Met kinase (Homo sapiens (Human), UniProt P08581); assay: c-Met TR-FRET kinase assay; format: biochemical; conditions: 1000 nM compound
Chain of c-Met kinase (P08581 25-1390): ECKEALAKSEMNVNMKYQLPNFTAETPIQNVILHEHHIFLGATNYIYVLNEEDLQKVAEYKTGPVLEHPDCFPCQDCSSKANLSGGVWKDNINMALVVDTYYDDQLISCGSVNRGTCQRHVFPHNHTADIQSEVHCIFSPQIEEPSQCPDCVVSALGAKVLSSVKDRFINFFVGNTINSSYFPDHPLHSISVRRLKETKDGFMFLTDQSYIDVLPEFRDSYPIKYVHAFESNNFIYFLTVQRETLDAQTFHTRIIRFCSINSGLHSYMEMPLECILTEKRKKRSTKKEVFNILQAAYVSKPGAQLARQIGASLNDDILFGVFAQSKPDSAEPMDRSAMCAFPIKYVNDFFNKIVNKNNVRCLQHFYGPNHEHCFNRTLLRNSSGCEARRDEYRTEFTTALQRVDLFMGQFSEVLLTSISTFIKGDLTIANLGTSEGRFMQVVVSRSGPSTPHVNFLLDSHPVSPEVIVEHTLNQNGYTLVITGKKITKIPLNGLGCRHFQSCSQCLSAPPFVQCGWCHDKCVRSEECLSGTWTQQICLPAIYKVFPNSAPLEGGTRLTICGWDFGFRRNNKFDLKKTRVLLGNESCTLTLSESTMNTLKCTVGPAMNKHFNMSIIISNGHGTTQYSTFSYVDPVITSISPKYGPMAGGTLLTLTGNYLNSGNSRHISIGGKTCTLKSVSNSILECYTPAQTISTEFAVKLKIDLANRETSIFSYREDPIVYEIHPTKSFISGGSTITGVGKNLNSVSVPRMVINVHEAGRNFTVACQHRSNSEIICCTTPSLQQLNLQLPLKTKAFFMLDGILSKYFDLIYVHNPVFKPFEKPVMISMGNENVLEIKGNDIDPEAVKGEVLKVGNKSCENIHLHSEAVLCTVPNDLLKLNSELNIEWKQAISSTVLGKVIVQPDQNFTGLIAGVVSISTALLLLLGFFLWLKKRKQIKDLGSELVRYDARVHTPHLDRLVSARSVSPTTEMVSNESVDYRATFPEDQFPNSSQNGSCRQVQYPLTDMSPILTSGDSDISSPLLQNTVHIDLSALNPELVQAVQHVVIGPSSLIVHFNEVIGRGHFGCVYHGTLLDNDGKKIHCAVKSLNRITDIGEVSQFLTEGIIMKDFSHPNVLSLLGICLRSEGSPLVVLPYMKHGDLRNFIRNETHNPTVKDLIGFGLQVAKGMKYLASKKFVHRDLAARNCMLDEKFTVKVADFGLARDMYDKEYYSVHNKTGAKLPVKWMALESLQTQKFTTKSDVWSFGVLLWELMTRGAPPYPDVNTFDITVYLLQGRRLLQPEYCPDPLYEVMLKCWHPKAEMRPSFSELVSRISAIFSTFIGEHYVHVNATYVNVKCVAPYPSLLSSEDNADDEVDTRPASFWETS
Method: Compounds were screened in the TR-FRET assay with c-Met kinase. 0.1 ng of c-Met [expressed in-house] kinase was used for assay. The compound was incubated with the kinase for 60 min at RT. After the incubation, substrate mix [40 nM Ultra light poly GT (Perkin Elmer, USA) and 10 μM ATP (Sigma)] was added. The above reaction was stopped by the addition of 40 mM EDTA after the 30 min kinase reaction. The Eu-labelled antiphospho-tyrosine antibody [Perkin Elmer, USA] was added at 0.5 nM and the fluorescence emission at 615 nm/665 nm [excitation at 340 nm] was measured. The compounds were initially screened at 100 nM and 1 μM concentrations. The compounds with >50% inhibition at 100 nM of c-Met were taken for the full dose response studies. The final DMSO concentration in the assay was 1%. For IC50 determination, ⅓rd serial dilution was made from the 20 mM DMSO stock solution. 2 μl of these were transferred to the test wells containing 20 μl reaction mixture [total reaction volume 20 μl]. The fluorescence was measured in Perkin Elmer Wallac 1420 Multilabel Counter Victor 3. The IC50 was determined by fitting the dose response data to sigmoidal curve fitting equation using GraphPad Prism software V5.

Chain of FGFR1 kinase (P11362 22-822): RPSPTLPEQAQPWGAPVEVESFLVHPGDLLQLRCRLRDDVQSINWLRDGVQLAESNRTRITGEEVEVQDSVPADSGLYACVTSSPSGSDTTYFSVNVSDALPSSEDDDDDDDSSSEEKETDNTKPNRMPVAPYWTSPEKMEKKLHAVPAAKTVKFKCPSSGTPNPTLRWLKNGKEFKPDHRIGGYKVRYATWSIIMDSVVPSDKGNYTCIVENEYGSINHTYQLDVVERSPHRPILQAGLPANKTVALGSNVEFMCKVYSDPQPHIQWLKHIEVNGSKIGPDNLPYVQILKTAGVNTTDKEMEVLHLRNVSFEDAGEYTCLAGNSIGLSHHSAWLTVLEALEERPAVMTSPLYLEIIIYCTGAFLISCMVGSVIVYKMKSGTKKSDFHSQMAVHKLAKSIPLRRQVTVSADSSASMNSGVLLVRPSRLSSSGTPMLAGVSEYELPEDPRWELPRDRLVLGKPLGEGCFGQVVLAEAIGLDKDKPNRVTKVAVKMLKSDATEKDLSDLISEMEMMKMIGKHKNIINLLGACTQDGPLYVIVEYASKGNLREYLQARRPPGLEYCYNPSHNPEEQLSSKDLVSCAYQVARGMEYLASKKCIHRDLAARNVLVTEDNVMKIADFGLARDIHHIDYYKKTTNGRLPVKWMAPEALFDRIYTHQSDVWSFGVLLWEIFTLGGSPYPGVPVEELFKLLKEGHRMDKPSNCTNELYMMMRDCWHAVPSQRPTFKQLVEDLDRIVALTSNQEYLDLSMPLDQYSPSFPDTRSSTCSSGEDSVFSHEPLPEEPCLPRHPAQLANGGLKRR

| inhibition at 1 µM (FGFR1 kinase) [%] | IC50 (FGFR1 kinase) [nM] | inhibition at 1 µM (c-Met kinase) [%] | SMILES |
| --- | --- | --- | --- |
| 98 | 3.4 | 9 | CCS(=O)(=O)Nc1cc(-c2ccc(F)cc2F)cc(-n2cnc3cc(-c4cn(CCN5CCOCC5)nn4)ccc32)c1 [Example 49, N-(2′,4′-difluoro-5-(5-(1-(2-morpholinoethyl)-1H-1,2,3-triazol-4-yl)-1H-benzo[d]imidazol-1-yl)biphenyl-3-yl)ethanesulfonamide] |
| 87 | 22 | -2 | COc1ccc(-c2ccc3c(c2)ncn3-c2cc(NC(C)=O)cc(-c3ccc(F)cc3)c2)cn1 [Example 69, N-(4′-fluoro-5-(5-(6-methoxypyridin-3-yl)-1H-benzo[d]imidazol-1-yl)biphenyl-3-yl)acetamide] |
| 99 | 10 | 0 | CC(=O)Nc1cc(-c2ccc(F)cc2)cc(-n2cnc3cc(-n4cccn4)ccc32)c1 [Example 70, N-(5-(5-(1H-pyrazol-1-yl)-1H-benzo[d]imidazol-1-yl)-4′-fluorobiphenyl-3-yl)-acetamide] |
| 98 | 32 | 11 | CCS(=O)(=O)Nc1cc(-c2ccc(F)cc2)cc(-n2cnc3cc(-n4cccn4)ccc32)c1 [Example 72, N-(5-(5-(1H-pyrazol-1-yl)-1H-benzo[d]imidazol-1-yl)-4′-fluorobiphenyl-3-yl)-ethanesulfonamide] |
| 96 | 16 | 15 | CC(=O)Nc1cc(-c2ccc(C)o2)cc(-n2cnc3cc(-c4cnn(CCN(C)C)c4)ccc32)c1 [Example 82, N-(3-(5-(1-(2-(dimethylamino)ethyl)-1H-pyrazol-4-yl)-1H-benzo[d]imidazol-1-yl)-5-(5-methylfuran-2-yl)phenyl)acetamide] |
| 95 | 37 | 5 | CC(=O)Nc1cc(-c2ccc(C)o2)cc(-n2cnc3cc(-c4cnn(CCN5CCOCC5)c4)ccc32)c1 [Example 83, N-(3-(5-methylfuran-2-yl)-5-(5-(1-(2-morpholinoethyl)-1H-pyrazol-4-yl)-1H-benzo[d]imidazol-1-yl)phenyl)acetamide] |
| 97 | 1.8 | 0 | CC(=O)Nc1cc(-n2cccc2)cc(-n2cnc3cc(-c4cn(CCC(C)(C)O)nn4)ccc32)c1 [Example 112, N-(3-(5-(1-(3-hydroxy-3-methylbutyl)-1H-1,2,3-triazol-4-yl)-1H-benzo[d]-imidazol-1-yl)-5-(1H-pyrrol-1-yl)phenyl)acetamide] |
| 94 | 83 | 23 | Cn1cc(-c2ccc3c(c2)ncn3-c2cc(NS(=O)(=O)N3CCCCC3)cc(-n3cccn3)c2)cn1 [Example 119, N-(3-(5-(1-methyl-1H-pyrazol-4-yl)-1H-benzo[d]imidazol-1-yl)-5-(1H-pyrazol-1-yl)phenyl)piperidine-1-sulfonamide] |
| 94 | 61 | 0 | O=C(NCc1ccco1)Nc1cc(-n2cccn2)cc(-n2cnc3cc(-n4cccn4)ccc32)c1 [Example 123, 1-(3-(5-(1H-pyrazol-1-yl)-1H-benzo[d]imidazol-1-yl)-5-(1H-pyrazol-1-yl)-phenyl)-3-(furan-2-ylmethyl)urea] |
| 91 | 62 | 10 | CC(=O)Nc1cc(-n2cccn2)cc(-n2cnc3cc(-c4cnn(CC5CC5)c4)ccc32)c1 [Example 127, N-(3-(5-(1-(cyclopropylmethyl)-1H-pyrazol-4-yl)-1H-benzo[d]imidazol-1-yl)-5-(1H-pyrazol-1-yl)phenyl)acetamide] |
| 99 | 1.3 | 15 | CC(=O)Nc1cc(-c2ccc(F)cc2F)cc(-n2cnc3cc(-c4cnn(C)c4)cnc32)c1 [Example 131, N-(2′,4′-difluoro-5-(6-(1-methyl-1H-pyrazol-4-yl)-3H-imidazo[4,5-b]pyridin-3-yl)biphenyl-3-yl)acetamide] |
| 97 | 14 | 0 | CCS(=O)(=O)Nc1cc(-c2ccc(F)cc2F)cc(-n2cnc3cc(-c4cnn(C)c4)cnc32)c1 [Example 133, N-(2′,4′-difluoro-5-(6-(1-methyl-1H-pyrazol-4-yl)-3H-imidazo[4,5-b]pyridin-3-yl)biphenyl-3-yl)ethanesulfonamide] |
| 92 | 98 | 0 | Cn1cc(-c2cnc3c(c2)ncn3-c2cc(NS(=O)(=O)c3ccccc3)cc(-c3ccc(F)cc3F)c2)cn1 [Example 134, N-(2′,4′-difluoro-5-(6-(1-methyl-1H-pyrazol-4-yl)-3H-imidazo[4,5-b]pyridin-3-yl)biphenyl-3-yl)benzenesulfonamide] |
| 91 | 48 | 0 | CC(C)S(=O)(=O)Nc1cc(-c2cc(F)ccc2F)cc(-n2cnc3cc(-c4cnn(CCN5CCOCC5)c4)ccc32)c1 [Example 142, N-(2′,5′-difluoro-5-(5-(1-(2-morpholinoethyl)-1H-pyrazol-4-yl)-1H-benzo[d]-imidazol-1-yl)biphenyl-3-yl)propane-2-sulfonamide] |
| 79 | 7.3 | 0 | CC(=O)Nc1cc(-c2c(F)cccc2F)cc(-n2cnc3cc(-n4cccn4)ccc32)c1 [Example 152, N-(5-(5-(1H-pyrazol-1-yl)-1H-benzo[d]imidazol-1-yl)-2′,6′-difluorobiphenyl-3-yl)acetamide] |
| 89 | 62 | 1 | CC(=O)Nc1cc(-n2cncn2)cc(-n2cnc3cc(-c4cnn(C)c4)ccc32)c1 [Example 155, N-(3-(5-(1-methyl-1H-pyrazol-4-yl)-1H-benzo[d]imidazol-1-yl)-5-(1H-1,2,4-triazol-1-yl)phenyl)acetamide] |
| 95 | 22 | 12 | COc1ccc(-c2cc(NC(C)=O)cc(-n3cnc4cc(-c5cnn(C)c5)ccc43)c2)cn1 [Example 158, N-(3-(6-methoxypyridin-3-yl)-5-(5-(1-methyl-1H-pyrazol-4-yl)-1H-benzo[d]-imidazol-1-yl)phenyl)acetamide] |
